Patent US4338331A, “Isoindoline derivative and a therapeutic composition thereof” (priority 1979, dated 1982)
Where “and” joins values, the source holds several entries; their conditions need not be identical. Equal entries are not always repeated.

Legend:
[1] = Acute toxicity, oral, rat; format: in vivo; settings: in vivo, rat, read-out: DL50
Protocol: (§1) Acute toxicity was determined orally in the Wister rat and in the Swiss mouse of both sexes.
(§2) The animals were kept fasting for at least 12 hours before the tests but whith free access to water. The compound was suspended homogeneously in gum arabic mucilage and was administered, at the set doses, in a volume of 40 ml/kg by means of a gastro-oesophageal probe.
(§3) Each dose was tested on ten animals, of which five were male and five female. The weight of the rats varied from 300 to 350 g for the males and from 220 g to 250 g for the females. The weight of the mice, of both sexes, varied from 28 g to 35 g.
(§4) The observation lasted ten days.

Wister rat = test: Acute toxicity, oral, rat; format: in vivo
Protocol: as §1, §2, §3, §4

male Wistar rat = test: Chronic (subacute) toxicity, 28 days oral, male rat; format: in vivo; settings: 20 mg/kg and 40 mg/kg, printed '48 consecutive days'
male rats = test: Diuretic and saluretic activity: excretion of a load of distilled water (TABLE 2); format: in vivo, Wistar rat; settings: 5 mg/kg oral + aqueous load
Protocol: (§5) Both the CM/1 and the Indapamide were administered orally after being suitably dissolved in the following solvent:
(§6) The controls were treated with an equal volume of solvent. The experiments were carried out on animals which had regularly fasted for at least 12 hours, but had free access to water.
(§7) The sodium and potassium in the urine were determined by a photometric method.
The rats were then immediately placed in individual metabolic cages. The urine was collected over 4 hours. The quantity has been expressed in the usual manner as a percentage of the volume administered.
Sodium and potassium were also analysed, and these have been expressed as mEq/4h.
After two days, in the preceding manner, the same rats were treated with Indapamide, and after a further two days with the product CM/1. In the interval between one test and the other, the rats were housed and fed in the normal manner. The dose used for both compounds was the same as previously, i.e. 5 mg/kg.

female Wistar rats [2] = test: Effect on spontaneous diuresis (TABLE 3); format: in vivo, Wistar rat; settings: 5 mg/kg oral; for Excreted sodium/potassium ratio: 12 h; for Potassium excretion / Sodium excretion: spontaneous diuresis
Protocol: These investigations were carried out on Wistar rats of both sexes, having a body weight which is specified in each case in the relative tables, which compare the results with Indapamide. Both the CM/1 and the Indapamide were administered orally after being suitably dissolved in the following solvent:
as §6, §7
Finally, the effect on the new product of spontaneous diuresis was determined.
These investigations were carried out on 15 female Wistar rats having a body weight varying from 230 to 260 g, and divided at random into three groups of 5. The animals were kept in individual metabolic cages overnight for a period of 12 hours in order to collect the urine spontaneously excreted. One group was treated as usual with 1 ml/kg of solvent by means of a gastric probe, and the other two were treated respectively with 5 mg/kg of Indapamide and 5 mg/kg of CM/1. The sodium and potassium were analysed as usual in the urine collected.

female Wistar rats [3] = test: Diuretic and saluretic activity: excretion of an aqueous saline load (TABLE 1); format: in vivo, Wistar rat; settings: 5 mg/kg oral
Protocol: as §5, §6, §7
The effect on the excretion of an aqueous saline load was first checked. 18 female Wistar rats were used divided into three groups, one of 8 and two of 5, and these were treated in the following manner:
GROUP A: CONTROLS 1 ml of solvent made up to 50 ml with 0.9% sodium chloride solution, administered by gastric probe, per kg of body weight (=50 ml/kg in terms of volume);
GROUP B: INDAPAMIDE 5 mg/kg in 1 ml/kg of solvent made up to 50 ml/kg with sodium chloride solution, administered by gastric probe;
GROUP C: CM/1,5 mg/kg using the same method as for the Indapamide.
The rats were placed immediately in individual metabolic cages for collecting the urine during the three hours subsequent to the load. The quantity of urine excreted is given as a percentage of the quantity administered. The sodium and potassium are expressed in mEq/3h.
Values of P less than 0.05 have been considered significant.

[4] = saline load, mean ± standard error, n = 5

For `CC1c2ccccc2CN1NC(=O)c1ccc(Cl)c(S(N)(=O)=O)c1` (centres unmarked) [CM/1, 1-methyl-2-(3'-sulphamyl-4'-chlorobenzamido)-isoindoline], the LD50 at 240 h [1] was over 2500 mg/kg, the DL50 (Wister rat; Wister rat, both sexes, 10 days observation) was > 2,500 mg/kg and the “deaths / toxic symptomatology” value (Wister rat; rat, individual doses up to 2,500 mg/kg) was “No deaths were observed either in the rat or in the mouse, nor was any particular toxic symptomatology found”. For the same compound, the damaging side-effects (male Wistar rat) was “no damagingside-effects”, the “activity of CM/1 compared with Indapamide” value (male rats) was “more active than the Indapamide” and the “diuretic and saluretic action” value (male rats) was “significant diuretic and saluretic action”. For the same compound, the “RATIO Na/K (sodium to potassium excreted)” value (male rats; 4 h, average) was 2.6955, the “Cumulative percent excretion at 1 hour from load” value (male rats; individual rats) was 58.1% and 50.0% and 7.1% and 55.2% and 51.6% and the “Cumulative percent excretion at 2 hours from load” value (male rats; individual rats) was 109.7% and 78.6% and 57.1% and 110.4% and 125.8%. The “Cumulative percent excretion at 3 hours from load” value (male rats; individual rats) was 116.2% and 107.2% and 85.7% and 134.5% and 145.2%, the “Cumulative percent excretion at 4 hours from load” value (male rats; individual rats) was 116.2% and 121.4% and 114.3% and 134.5% and 167.8% and the Potassium excretion (male rats; individual rats) was 0.00542 mEq/4h and 0.00512 mEq/4h and 0.00603 mEq/4h and 0.00856 mEq/4h and 0.01399 mEq/4h. The Sodium excretion (male rats; individual rats) was 0.01374 mEq/4h and 0.01362 mEq/4h and 0.0125 mEq/4h and 0.01671 mEq/4h and 0.04889 mEq/4h, the “Cumulative percent excretion at 1 hour from load” value (male rats; mean of 5 rats) was 44.4% and the “Cumulative percent excretion at 2 hours from load” value (male rats; mean of 5 rats) was 96.32%. For the same compound, the “Cumulative percent excretion at 3 hours from load” value (male rats; mean of 5 rats) was 117.76%, the “Cumulative percent excretion at 4 hours from load” value (male rats; mean of 5 rats) was 130.84 ± 9.89% and the Potassium excretion (male rats; mean of 5 rats) was 0.007824 mEq/4h. For the same compound, the Sodium excretion (male rats; mean of 5 rats) was 0.02109 mEq/4h, the diuretic action (female Wistar rats [2]) was “marked diuretic action, which is stronger in the case of the product CM/1” and the “ratio of sodium to potassium excretion, CM/1 compared with Indapamide” value (female Wistar rats [2]) was “higher in the group treated with the product CM/1, and the difference reaches statistical significance”. For the same compound, the “sodium and potassium excretion” value (female Wistar rats [2]) was “increased”, the Excreted sodium/potassium ratio (female Wistar rats [2]; individual rats) was 1.651 and 2.262 and 2.277 and 2.188 and 1.746 and the Excreted sodium/potassium ratio (female Wistar rats [2]; mean ± standard error, n = 5) was 2.024 ± 0.134. The “ml of urine collected in 12 hours” value (female Wistar rats [2]; individual rats) was 10.5 mL and 17.5 mL and 21.0 mL and 16.6 mL and 15.0 mL, the “ml of urine collected in 12 hours” value (female Wistar rats [2]; mean ± standard error, n = 5) was 16.12 ± 1.71 mL and the Potassium excretion (female Wistar rats [2]; individual rats) was 3.708 mEq/12h and 3.042 mEq/12h and 3.911 mEq/12h and 3.508 mEq/12h and 3.430 mEq/12h. The Sodium excretion (female Wistar rats [2]; individual rats) was 6.123 mEq/12h and 6.880 mEq/12h and 8.906 mEq/12h and 7.675 mEq/12h and 5.989 mEq/12h, the Potassium excretion (female Wistar rats [2]; mean ± standard error, n = 5) was 3.5198 ± 0.145 mEq/12h and the Sodium excretion (female Wistar rats [2]; mean ± standard error, n = 5) was 7.114 ± 0.539 mEq/12h. The “diuretic and saluretic effect, CM/1 compared with Indapamide” value (female Wistar rats [3]) was “considerably greater”, the “Urine excretion of load in percent of quantity administered (cumulative excretion), 1 hour” value (female Wistar rats [3]; individual rats) was 16.7% and 14.8% and 11.5% and 9.1% and 12.9% and the “Urine excretion of load in percent of quantity administered (cumulative excretion), 2 hours” value (female Wistar rats [3]; individual rats) was 68.3% and 32.2% and 48.5% and 64.5% and 48.7%. The “Urine excretion of load in percent of quantity administered (cumulative excretion), 3 hours” value (female Wistar rats [3]; individual rats) was 108.8% and 94.5% and 109.2% and 94.8% and 90.4%, the “Urine excretion of load in percent of quantity administered (cumulative excretion), 1 hour” value (female Wistar rats [3]; mean ± standard error, n = 5) was 13.0 ± 1.31% and the “Urine excretion of load in percent of quantity administered (cumulative excretion), 2 hours” value (female Wistar rats [3]; mean ± standard error, n = 5) was 52.44 ± 6.46%. For the same compound, the “Urine excretion of load in percent of quantity administered (cumulative excretion), 3 hours” value (female Wistar rats [3]; mean ± standard error, n = 5) was 99.54 ± 3.93% and 99.5%, the “diuretic and saluretic effect” value (female Wistar rats [3]; relative to the controls) was “significant diuretic and saluretic effect relative to the controls” and the “ratio of the sodium to the potassium excreted during the 3 hours” value (female Wistar rats [3]; saline load) was 5.91. The Potassium excretion (female Wistar rats [3]; saline load, individual rats) was 0.297 mEq/3h and 0.310 mEq/3h and 0.276 mEq/3h and 0.280 mEq/3h and 0.284 mEq/3h, the Sodium excretion (female Wistar rats [3]; saline load, individual rats) was 1.81 mEg/3h and 1.77 mEg/3h and 1.56 mEg/3h and 1.68 mEg/3h and 1.73 mEg/3h and the Potassium excretion (female Wistar rats [3]; [4]) was 0.289 ± 0.062 mEq/3h. The Sodium excretion (female Wistar rats [3]; [4]) was 1.71 ± 0.043 mEg/3h and the “excreted sodium and potassium” value (female Wistar rats [3]; versus controls) was “significantly higher than the controls”.
